From patent publication US5696136A, “Method of treating psychosis using azaheterocyclylmethyl” (Bayer Aktiengesellschaft, priority 1991, dated 1997)
Counter-ions that a name gives are not always drawn. Like-named read-outs stand apart in the source and are kept apart here.

Assays:
5-HT1 receptor = experiment: Affinity for the 5-HT1 receptor; receptor-binding studies using calf hippocampus membrane preparations, 3H-serotonin; settings: calf hippocampus membranes
Source text: Affinity for the 5-HT1 receptor
The high affinity of the compounds according to the invention for 5-hydroxytryptamine receptors of subtype 1 is shown in Table 1 by way of example. The values shown are data which have been determined from receptor-binding studies using calf hippocampus membrane preparations. To this end, ^3 H-serotonin was used as radioactively labelled ligand.

α-adrenergic = settings: hydrochloride; literature; cited from earlier work
dopamine D2 receptor = dopamine D2 receptor (Rattus norvegicus, UniProt P61169); experiment: Dopamine D2 receptor test; binding of 3H-sulpiride to membranes from the striatum of rats
dopamine D2 receptor, sequence (P61169 whole entry): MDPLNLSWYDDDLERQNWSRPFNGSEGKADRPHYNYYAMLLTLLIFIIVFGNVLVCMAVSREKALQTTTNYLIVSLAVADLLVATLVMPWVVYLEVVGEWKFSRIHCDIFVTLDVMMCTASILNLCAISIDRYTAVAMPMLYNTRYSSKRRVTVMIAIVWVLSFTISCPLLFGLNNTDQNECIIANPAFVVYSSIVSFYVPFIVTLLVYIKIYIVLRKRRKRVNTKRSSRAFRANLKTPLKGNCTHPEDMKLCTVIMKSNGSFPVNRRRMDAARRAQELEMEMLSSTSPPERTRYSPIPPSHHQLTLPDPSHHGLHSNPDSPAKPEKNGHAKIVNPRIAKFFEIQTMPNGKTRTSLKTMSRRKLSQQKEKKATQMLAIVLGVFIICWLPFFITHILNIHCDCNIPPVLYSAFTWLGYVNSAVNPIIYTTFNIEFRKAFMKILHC
Experimental: In this test the binding of the selective D2 receptor antagonist ^3 H-sulpiride to membranes from the striatum of rats is measured. Compounds which bind to dopamine D2 receptors inhibit the binding of ^3 H-sulpiride in a concentration-dependent manner. IC50 values are determined from the displacement curves and the inhibition constants Ki calculated from these values.

5-HT1A receptor = molecular target: T1, 5-HT1A receptor (Bos taurus, UniProt F6Q2H9); experiment: Affinity for the 5-HT1A receptor; binding of 3H-ipsapiron to 5-HT1A receptors in calf hippocampus membranes
T1 construct: 5-HT1A receptors in calf hippocampus membranes; from tissue; host or cells: calf hippocampus membranes
T1 sequence (F6Q2H9 1-422): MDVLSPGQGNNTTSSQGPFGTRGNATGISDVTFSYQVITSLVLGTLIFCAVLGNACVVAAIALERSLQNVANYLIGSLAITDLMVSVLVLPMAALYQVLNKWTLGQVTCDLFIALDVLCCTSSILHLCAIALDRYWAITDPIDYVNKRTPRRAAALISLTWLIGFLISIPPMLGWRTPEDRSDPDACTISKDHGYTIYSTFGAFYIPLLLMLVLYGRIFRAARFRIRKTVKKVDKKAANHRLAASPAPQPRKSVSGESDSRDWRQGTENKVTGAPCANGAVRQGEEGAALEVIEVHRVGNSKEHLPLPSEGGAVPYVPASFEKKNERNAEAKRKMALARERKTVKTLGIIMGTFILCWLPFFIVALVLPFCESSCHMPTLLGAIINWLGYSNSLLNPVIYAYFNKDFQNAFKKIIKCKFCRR
Experimental: Affinity for the 5-HT1A receptor
[W. U. Dompert et al., Naunyn-Schmiedeberg's Arch. Pharmacol. (1985), 328, 467-470].
In this test the binding of ^3 H-ipsapiron to 5-HT1A receptors in calf hippocampus membranes is measured.

[1] = 3H-sulpiride, rat striatum membranes, Ki calculated from IC50, read-out: Ki

SMILES	Ki (5-HT1 receptor) [nM]	Ki (dopamine D2 receptor; [1]) [nM]	Ki (5-HT1A receptor) [nM]	other results
COc1cccc2c1OC(CN1CCC(n3c(=O)[nH]c4ccccc43)CC1)CC2 (centres unmarked) [Example 4]	2			
c1ccc2c(c1)CCC(CN1CCCCC1)O2 (centres unmarked) [1-[(3,4-dihydro-2H-1-benzopyran-2-yl)methyl]piperidine]				α-adrenergic-blocking effect (α-adrenergic): α-adrenergic-blocking effect
COc1cccc2c1OC(CN1CCC(CN3C(=O)c4ccccc4C3=O)CC1)CC2 (centres unmarked) [Example 2, 2-[4-(Isoindol-1,3-dion-2-yl)methyl-piperidin-1-yl)methyl-8-methoxychroman oxalate hydrate]	3	1.8		
O=c1[nH]c2ccccc2n1C1=CCN(CC2CCc3ccccc3O2)CC1 (centres unmarked) [Example 5]			1.5	
O=c1[nH]c2ccccc2n1C1CCN(CC2CCc3ccccc3O2)CC1 (centres unmarked) [Example 3, 1-(Chroman-2-yl-methyl)-4-(2-oxo-1-benzimidazolyl)-piperidine]				Ki (dopamine D2 receptor): 0.4 nM
COc1cccc2c1OC(CN1CC=C(n3c(=O)[nH]c4ccccc43)CC1)CC2 (centres unmarked) [Example 6]		2.3	1.4	
